From US8940915B2, “Solvent for recovery of maleic anhydride from a gas stream” (Huntsman Petrochemical LLC, priority 2011, dated 2015)
Values after ≈ are worked out from the molar mass of the structure shown.

How the values were obtained:
[1] = Solubility of fumaric acid in the solvent; type: physicochemical; details: fumaric acid dissolved in dibutyl adipate, at 60° C.
[2] = Solubility of maleic anhydride in the solvent; type: physicochemical; details: maleic anhydride dissolved in dibutyl adipate, at 60° C.
[3] = Solubility in water; type: physicochemical; details: at 25° C.
[4] = Toxicity statement

## CCCCOC(=O)CCCCC(=O)OCCCC [dibutyl adipate, Di-n-butyl adipate]
[1]
  Solubility of Fumaric Acid: about 0.15 wt % at 60 °C
[2]
  Solubility of Maleic Anhydride: >20 wt % at 60 °C
[3]
  solubility: 35 µg/mL (≈ 135 µM)
[4]
  Toxicity (in words): neither dibutyl adipate nor any of its hydrolysis products is toxic
